# Data published in US20070299114A1, “Biaryl Derivatives” (Shionogi & Co., Ltd., priority 2004, published 2007).
# Columns and labels:
# [1] = system: anti-OVA IgE antibody; test: suppression of IgE antibody production to anti-ovalbumin (OVA) in immunized mice, PCA titer; format: in vivo; conditions: anti-OVA IgE antibody value (PCA titer, Log2 of maximum serum dilution rate) in BALB/c mice
# Description: Effect of Suppression of IgE Antibody Production to Anti-Ovalbumin (OVA)
# BALB/c mice (female, 8 to 10 week old) purchased from Japan Charles River (Kanagawa) and Wistar rats (female, 8 to 10 week old) purchased from Japan SLC (Sizuoka) were used.
# BALB/c mice were immunized by intraperitoneally injecting 0.2 ml of a solution obtained by suspending 2 μg of ovalbumin (OVA) and an aluminum hydroxide gel (1 mg) in a brine. After ten days, blood was taken from a heart, the serum was separated, and an IgE antibody value was measured.
# […] Administration was performed from immunization date to the day before blood collection for consecutive 10 days.
# 4) Measurement of Anti-OVA IgE Antibody Value (PCA Titer)
# The resulting mouse serum was prepared into a 2-fold dilution series with a brine, and each 50 μl of this was subcutaneously injected into a back of a pre-shaved Wistar rat. After 24 hours, 0.5 ml of a brine containing 1 mg of OVA and 5 mg of an Evans Blue dye was intravenously injected to induce a passive skin anaphylactic reaction (PCA).
# [2] = biological target: T1, dihydrooroate dehydrogenase (Homo sapiens, UniProt Q02127); test: dihydroorotate dehydrogenase inhibition, U-937 mitochondrial/microsomal fraction, DCIP absorbance at 620 nm; format: biochemical; conditions: DHODH of human U-937 cell mitochondrial/microsomal fraction; 37° C., 120 minutes
# T1 construct: ultracentrifugation at 4° C. and 120,000×g for 60 minutes afforded a mitochondrial/microsomal fraction; endogenous in cells; host or cells: U-937 (human histiocytic lymphoma cell line), mitochondrial/microsomal fraction
# Description: Method of Testing dihydrooroate dehydrogenase Inhibition
# Human U-937 cell (human histiocytic lymphoma cell line) was sonicated in a homogenizing buffer (20 mM Tris-HC1, pH 7.4, containing 2 mM EDTA and protease inhibitor cocktail), and this was centrifuged at 4° C. and 1,200×g for 15 minutes to remove cell debris. Further, ultracentrifugation at 4° C. and 120,000×g for 60 minutes afforded a mitochondrial/microsomal fraction. The resulting fraction was quantitated for a protein, and prepared to 10 mg/ml, which was freezing-stored in a −40° C. in a refrigerator until measurement. To 150 μl of the reaction solution (50 mM Tris-HC1, pH 7.4, containing 0.1% Triton X-100, 1 mM KCN, 100 μM coenzyme Q10, 200 μM DCIP), were added 10 μl of a dilution series of the compound and 0.2 mg of a mitochondrial/microsomal fraction, followed by pre-incubation at 37° C. for 30 minutes. Then, 20 μl of a 5 mM DHO solution (final concentration […]), which is a substrate, was added, this was incubated at 37° C. for 120 minutes, and an absorbance at a measurement wavelength of 620 nm was measured. A rate of suppression of a compound at each concentration relative to a change in an absorbance due to the enzyme reaction was obtained, and a concentration indicating 50% inhibition (IC50 value) was calculated to assess the inhibition activity of the compound.
# [3] = system: Human lymphocyte; test: suppression of IgE antibody production in human lymphocyte stimulated with anti-human CD40 antibody and IL-4; format: cell-based; conditions: 216 h; IgE antibody production by human lymphocyte, anti-human CD40 antibody + IL-4, cultured for 9 days, ELISA
# Description: Effect of Suppressing Antibody Production Using Human Lymphocyte
# 1) Human Peripheral Blood
# Human peripheral blood was collected with a plastic syringe containing heparin (final concentration 1.5%) from a vein of an adult healthy person, and subjected to collection of lymphocyte immediately after blood collection.
# To the RPMI medium (Sigma) were added 10% of fetal bovine serum, (HyClone Lab.) which had been immobilized at 56° C. for 30 minutes, penicillin (100 units/ml) and streptomycin (100 μg/ml) (Invitrogen), which was used.
# The present compound was dissolved in dimethyl sulfoxide (Nakalai Tesque) to 2 mg/ml and, thereafter, the solution was diluted with a medium to a final concentration of 0.01 pg/ml to 10 μg/ml.
# Human peripheral blood was mixed with an equal amount of PBS-10 mM EDTA, 10 ml of this was overlaid on a tube containing 3 ml of Ficoll-Paque Plus (Pharmacia Biotech), followed by centrifugation at room temperature and 300×g for 30 minutes to obtain a lymphocyte layer. The collected cell suspension was centrifugation-washed with a sterilized Hanks's balanced salt solution (Invitrogen), passed through a nylon mesh, and centrifugation-washed with a medium, which was used in an experiment as human lymphocyte.
# 5) Inducement of IgE Antibody Production Due to B cell Stimulation
# Human lymphocyte was seeded on a 96-well culturing plate (Sumitomo Bakelite) to 2×10^5 cells per well, and the compound, an anti-human CD40 antibody (Pharmingen, 2 μg/ml), and human recombinant interleukin-4 (IL-4) (PEPROTECH, 0.1 μg/ml) were added, followed by culturing at 37° C. under the presence of 5% CO2 (0.2 ml/well). After cultured for 9 days, an amount of an antibody produced in the supernatant was quantitated by a specific ELISA method.
# 6) Quantitation of IgE Antibody
# For quantitating IgE, a commercially available kit, MESACUP IgE Test (Medical & Biological Laboratories Co., Ltd.) was used. An experimental method was according to the manual, an experiment was performed duplicately, and an average was obtained.
# [4] = dose 10 mg/kg orally for consecutive 10 days
# [5] = dose 40 mg/kg orally for consecutive 10 days
# T1 sequence (Q02127 whole entry): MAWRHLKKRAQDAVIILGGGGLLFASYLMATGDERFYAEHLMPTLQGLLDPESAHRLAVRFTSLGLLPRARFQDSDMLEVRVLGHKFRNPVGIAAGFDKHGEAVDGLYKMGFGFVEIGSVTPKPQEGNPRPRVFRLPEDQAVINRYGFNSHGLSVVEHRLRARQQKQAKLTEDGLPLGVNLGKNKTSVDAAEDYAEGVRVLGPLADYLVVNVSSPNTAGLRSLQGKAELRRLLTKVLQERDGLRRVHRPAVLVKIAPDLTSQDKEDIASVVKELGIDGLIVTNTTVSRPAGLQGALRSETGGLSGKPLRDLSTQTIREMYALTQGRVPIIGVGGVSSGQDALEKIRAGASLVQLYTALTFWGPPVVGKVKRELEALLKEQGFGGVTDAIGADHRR
IC50 [3],SMILES,"PCA [1, 4]",also measured
,C/C(=C\c1ccc(-c2ccc3[nH]ccc3c2)cc1)C(=O)O [Compound 1],,melting point: 195 to 198 °C
,C/C(=C\c1ccc(-c2ccc3[nH]ccc3c2)cc1)C(=O)NC1CCCC1 [Compound 4],,melting point: 154 to 157 °C
,C/C(=C\c1cc(F)c(-c2ccc(NC(C)C)cc2)cc1F)C(=O)NCC(=O)O [Compound 21],,melting point: 156 to 158 °C
,COc1cc(-c2ccc(NC(C)C)cc2F)c(OC)cc1/C=C(\C)C(=O)O [Compound 22],,melting point: 213 to 216 °C
0.5 ng/mL,C/C(=C\c1cc(C)c(-c2ccc(NC(C)C)cc2F)cc1C)C(=O)NC(C)C [Compound 122],4.7,IC50 [2]: 10.5 nM
0.6 ng/mL,Cc1cc(-c2ccc(NC(C)C)cc2F)c(C)cc1/C=C(/F)C(=O)NC(C)C [Compound 201],5.3,IC50 [2]: 5.17 nM
75 ng/mL,C/C(=C\C(=O)NC(C)C)c1cc(C)c(-c2ccc3[nH]ccc3c2)cc1C [Compound 252],,"PCA [1, 5]: 0<; IC50 [2]: 13.6 nM"
60 ng/mL,CCS(=O)(=O)NC(=O)/C(C)=C/c1cc(C)c(-c2ccc(NCc3ccco3)cc2F)cc1C [Compound 347],,"PCA [1, 5]: 2.0; IC50 [2]: 6.16 nM"
0.3 ng/mL,Cc1cc(-c2ccc(NC3CCCC3)cc2)c(C)cc1/C=C(\F)C(=O)NC(C)C [Compound 397],,PCA ([1]; dose 20 mg/kg orally for consecutive 10 days): 0<; IC50 [2]: 6.84 nM
0.8 ng/mL,C/C(=C\c1c(C)c(C)c(-c2ccc(NC3CCCC3)cc2F)c(C)c1C)C(=O)NC1CCCC1 [Compound 459],2.7,
9.3 ng/mL,C/C(=C\c1c(C)c(F)c(-c2ccc(NC(C)C)nc2)c(C)c1F)C(=O)NC(C)C [Compound 484],,"PCA [1, 5]: 0<"
13.5 ng/mL,C/C(=C\c1c(C)c(F)c(-c2ccc(NC(C)C)cc2)c(C)c1F)C(=O)O [Compound 486],0<,
9.4 ng/mL,CC/C(=C\c1c(C)c(F)c(-c2ccc(NC(C)C)cc2)c(C)c1F)C(=O)O [Compound 493],4.0,
41 ng/mL,CC/C(=C\c1c(C)c(F)c(-c2ccc(NC(C)C)cc2)c(C)c1F)C(=O)N[C@H](C)C(=O)O [Compound 495],4.7,
0.9 ng/mL,COc1c(C)c(-c2ccc(NC(C)C)cc2)c(OC)c(C)c1/C=C(\C)C(=O)O [Compound 526],,"PCA [1, 5]: 2.7"
7.2 ng/mL,COc1c(C)c(-c2ccc(NC3CCCCC3)cc2)c(OC)c(C)c1/C=C(\C)C(=O)O [Compound 559],4,
8.4 ng/mL,COc1c(C)c(-c2ccc(NC3CCCCC3)cc2)c(OC)c(C)c1/C=C(\C)C(=O)N[C@H](C)C(=O)O [Compound 562],,"PCA [1, 5]: 0<"
6.4 ng/mL,COc1c(C)c(-c2ccc(NCc3ccc(C)o3)cc2)c(OC)c(C)c1/C=C(\C)C(=O)O [Compound 571],1.3,
6.6 ng/mL,CCC/C=C/CNc1ccc(-c2c(C)c(OC)c(/C=C(\C)C(=O)O)c(C)c2OC)cc1 [Compound 573],0<,
4.8 ng/mL,CC/C=C/CNc1ccc(-c2c(C)c(OC)c(/C=C(\C)C(=O)O)c(C)c2OC)cc1 [Compound 585],1.0,
